≈ marks a conversion by molar mass, not a printed value. Calls of active or inactive are those of the source. The calls are words filed in the database; no cut-off is given here.
Key:
[1] = Critical micellar concentration of the compound by capillary electrophoresis method
Pseudomonas aeruginosa = assay: Antibacterial activity against Pseudomonas aeruginosa CCM 3955 after 24 hrs by microdilution method; type: functional; conditions: CCM 3955, 24 h
Enterococcus faecium = assay: Antibacterial activity against vancomycin-resistant Enterococcus faecium 419/ana clinical isolates after 24 hrs by microdilution method; type: functional
Escherichia coli [2] = assay: Bactericidal activity against Escherichia coli CCM 3954 assessed as bacterial count at 25 mg/L up to 6 hrs by time kill assay; type: functional
Escherichia coli [3] = assay: Bactericidal activity against Escherichia coli CCM 3954 assessed as reduction in bacterial count at 6.25 to 12.5 mg/L after 24 hrs by time kill assay; type: functional
Staphylococcus aureus = assay: Bactericidal activity against Staphylococcus aureus CCM 4223 assessed as reduction in bacterial count at 6.25 mg/L after 6 to 24 hrs by time kill assay; type: functional
Bacillus subtilis [4] = assay: Antibacterial activity against Bacillus subtilis assessed as inhibition of RNA synthesis at 2.5 mg/L after 50 mins by [3H]-uridine incorporation assay; type: functional
Bacillus subtilis [5] = assay: Antibacterial activity against Bacillus subtilis assessed as inhibition of plasma membrane lipids synthesis at 2.5 mg/L after 50 mins by [3H]-sodium acetate incorporation assay; type: functional
[6] = Pore forming activity across black lipid bilayer membranes assessed as induction of variation in membrane current by measuring pore conductance at 5 ug/ml
HepG2 [7] = assay: Induction of apoptosis in human HepG2 cells assessed as caspase 3/7 activation up to 80 mg/L after 4 hrs by caspase-Glo 3/7 luminescent assay; type: cell-based; conditions: hepg2, 4 h
TERT-RPE1 = assay: Cytotoxicity against human RPE1 cells assessed as disruption of cell membrane integrity after 4 hrs by CytoTox-ONE-based assay; conditions: tert-rpe1, 4 h
HepG2 [8] = assay: Cytotoxicity against human HepG2 cells assessed as disruption of cell membrane integrity after 4 hrs by CytoTox-ONE-based assay; conditions: hepg2, 4 h
Mus musculus = assay: Toxicity in ICR mouse assessed as mortality up to 2000 mg/kg, po administered as single dose measured for 2 weeks; type: organism-based; conditions: in vivo, 336 h
Oryctolagus cuniculus = assay: Toxicity in topically dosed rabbit assessed as skin irritation by measuring behavioral abnormalities measured up to 7 days post dose; type: organism-based; conditions: in vivo, topical_or_ocular, 168 h
[9] = Chemical stability of compound at 50 to 500 mg/L at pH 8.8 after 24 hrs at 37 degC by LC-MS analysis; type: physicochemical; conditions: buffer, pH 8.8, 24 h

Question: What does the source list for `CCCCCCCCCCCCCCOP(=O)(CCN(CCCN)CCCN)OC[C@H]1O[C@@H](n2ccc(=O)[nH]c2=O)[C@H](O)[C@@H]1O` (stereo not given in full)?
Answer: CMC [1]: 4.55 mM; MIC (Pseudomonas aeruginosa): 0.78 µg/mL (≈ 1.18 µM); MIC (Enterococcus faecium): 100 µg/mL (≈ 151 µM); Activity (Escherichia coli [2]): 0; Activity (Escherichia coli [3]): Active; Activity (Staphylococcus aureus): Active; inhibition (Bacillus subtilis [4]): inactive; inhibition (Bacillus subtilis [5]): inactive; Activity [6]: 73 to 151 pS; Activity (HepG2 [7]): Non-Toxic; Activity (TERT-RPE1): Non-Toxic; Activity (HepG2 [8]): Non-Toxic; Activity (Mus musculus): Non-Toxic; Activity (Oryctolagus cuniculus): Non-Toxic; Stability [9]: Stable
